Consider twelve compounds from patent US8846730B2, “Compounds as cannabinoid receptor ligands” (priority 2008, dated 2014).

Experiment [1] has as its system animal models of pain. Conditions: acute thermal, persistent, inflammatory and neuropathic pain models; cited from earlier work.
The target of experiment [2] is human CB2 receptors (Homo sapiens (Human), UniProt P34972). Description: human CB2 radioligand binding assay ([3H]CP 55,940 competition). The gist of the method: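 Displacement of 0.5 nM [3H]CP 55,940 over 0.01 nM-10 μM test compound, measured on human CB2 membranes from stably transfected HEK293 cells. Incubation 90 min at 30 °C in Tris/EDTA/MgCl2/BSA, pH 7.4, then filter-bound radioactivity counted; 10 μM unlabeled CP 55,940 defined nonspecific binding.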
Chain of human CB2 receptors (P34972 whole entry): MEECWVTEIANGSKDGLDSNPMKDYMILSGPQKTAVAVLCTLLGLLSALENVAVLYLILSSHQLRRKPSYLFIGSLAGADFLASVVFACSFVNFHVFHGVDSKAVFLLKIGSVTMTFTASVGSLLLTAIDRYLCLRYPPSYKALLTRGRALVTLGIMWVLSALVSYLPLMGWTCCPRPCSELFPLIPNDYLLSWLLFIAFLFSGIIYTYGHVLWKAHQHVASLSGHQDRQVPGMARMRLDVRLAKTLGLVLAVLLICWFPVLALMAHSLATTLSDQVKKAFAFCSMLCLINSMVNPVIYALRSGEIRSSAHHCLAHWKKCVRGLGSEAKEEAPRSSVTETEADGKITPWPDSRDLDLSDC

Experiment [3] has as its target rat CB2 receptors (HEK cells) (Rattus norvegicus (Rat), UniProt Q9QZN9). Description: rat CB2 cyclase functional assay (HitHunter cAMP). In kind it is cell-based.
Experiment [4] concerns the target rat CB2 receptors (Rattus norvegicus (Rat), UniProt Q9QZN9). Description: rat CB2 radioligand binding assay ([3H]CP 55,940 competition). Conditions: HEK293 membranes, 0.5 nM [3H]CP 55,940. The gist of the method:
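Membranes from HEK293 cells stably expressing rat CB2 (20 μg protein/well) were incubated 45 min at 30 °C with 0.5 nM [3H]CP 55,940 and five displacer concentrations, in pH 7.4 Tris buffer with 0.5 mg/mL BSA. Bound radioactivity was measured by filtration. Nonspecific binding was defined with 10 μM unlabeled CP 55,940.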

For experiment [5], the target named is rat CB1 receptors (HEK cells) (Rattus norvegicus (Rat), UniProt P20272). Description: rat CB1 cyclase functional assay (HitHunter cAMP). Type of experiment: cell-based.
Chain of rat CB1 receptors (HEK cells) (P20272 whole entry): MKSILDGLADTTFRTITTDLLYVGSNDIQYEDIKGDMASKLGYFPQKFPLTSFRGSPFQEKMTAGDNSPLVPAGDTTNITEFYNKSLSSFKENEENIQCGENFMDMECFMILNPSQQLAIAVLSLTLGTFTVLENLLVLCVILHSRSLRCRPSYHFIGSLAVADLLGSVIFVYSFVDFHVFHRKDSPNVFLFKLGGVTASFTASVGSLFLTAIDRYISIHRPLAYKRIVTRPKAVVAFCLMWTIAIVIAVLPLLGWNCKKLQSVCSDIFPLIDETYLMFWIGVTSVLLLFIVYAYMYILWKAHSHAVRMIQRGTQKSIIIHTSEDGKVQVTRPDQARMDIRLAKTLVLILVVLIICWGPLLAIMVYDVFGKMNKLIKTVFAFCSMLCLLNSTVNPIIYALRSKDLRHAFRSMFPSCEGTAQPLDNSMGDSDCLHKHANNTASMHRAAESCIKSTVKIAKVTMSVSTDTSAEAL
Experiment [6] relates to rodent models of pain. Particulars: neuropathic, incisional, chronic and acute inflammatory pain; cited from earlier work.
Experiment [7] deals with rat formalin model of persistent pain. Conditions: cited from earlier work.
Experiment [8] deals with microglial. Particulars: in vitro; cited from earlier work.
In experiment [9] the test system is atherosclerotic lesions. Conditions: low doses, apolipoprotein E knockout mice; cited from earlier work.
Experiment [10] relates to ovariectomy-induced bone loss. Conditions: mice, model for post-menopausal osteoporosis; cited from earlier work.
The mark [11] stands for this setting: HEK293 membranes, 0.5 nM [3H]CP 55,940, read-out: human CB2 (Ki).
Where [12] appears, read: HEK cells, forskolin 18 μM, read-out: rat CB2 cyclase (EC50).

pEC50, pKi: −log10 of the molar value. Where two headings read alike, the source gives them in different places. Bounds are passed on as bounds.

As to `CN1CCCCC1Cn1cc(C(=O)c2cc([N+](=O)[O-])ccc2I)c2ccccc21` (stereo not drawn) [AM-1241], the analgesic efficacy result in experiment [1] is on record as “robust analgesic efficacy”.

Usually pKi stands for the Ki on a negative log10 scale, so that one unit is a factor of ten. The pEC50 is −log10 of the EC50, conventionally taken in molar units. With `CC(C)(C)c1cn(C[C@H]2CCCO2)/c(=N/C(=O)c2cc(C(F)(F)F)ccc2OCc2ccn[nH]2)s1` [Example 56, N-[(2Z)-5-tert-butyl-3-[(2R)-tetrahydrofuran-2-ylmethyl]-1,3-thiazol-2(3H)-ylidene]-2-(1H-pyrazol-5-ylmethoxy)-5-(trifluoromethyl)benzamide], the pKi is 7.96 in experiment [2] (setting [11]) and 8.29 in [4]. The values for the pEC50 in experiment [3] (setting [12]) and in experiment [5] were 9.12 and 5.52, respectively.

On to `CC(C)(C)c1cn(C[C@H]2CCCO2)/c(=N/C(=O)c2cc(C(F)(F)F)ccc2OCCNCCO)s1` [Example 58, N-[(2Z)-5-tert-butyl-3-[(2R)-tetrahydrofuran-2-ylmethyl]-1,3-thiazol-2(3H)-ylidene]-2-{2-[(2-hydroxyethyl)amino]ethoxy}-5-(trifluoromethyl)benzamide], for which the pKi in experiment [2] (setting [11]) was 7.47; in experiment [4], 8.00. Also, the negative-log EC50 (pEC50) in [3] was 9.74; in experiment [5], 5.59.

`CN1CCC[C@H]1COc1ccc(C#N)cc1C(=O)/N=c1\sc(C(C)(C)C)cn1C[C@H]1CCCO1` [Example 59, N-[(2Z)-5-tert-butyl-3-[(2R)-tetrahydrofuran-2-ylmethyl]-1,3-thiazol-2(3H)-ylidene]-5-cyano-2-{[(2S)-1-methylpyrrolidin-2-yl]methoxy}benzamide]: the pKi in experiment [2] (setting [11]) is 7.37; in experiment [4], 8.03. For the same compound, the pEC50 in experiment [3] (setting [12]) is 9.89; in experiment [5] it was 5.64.

With `CC(COc1ccc(C(F)(F)F)cc1C(=O)/N=c1\sc(C(C)(C)C)cn1C[C@H]1CCCO1)=NOC1CCCCO1` (stereo partly drawn) [Example 63, N-[(2Z)-5-tert-butyl-3-[(2R)-tetrahydrofuran-2-ylmethyl]-1,3-thiazol-2(3H)-ylidene]-2-({2-[(tetrahydro-2H-pyran-2-yloxy)imino]propyl}oxy)-5-(trifluoromethyl)benzamide], the pKi in experiment [2] is 7.60; in experiment [4], 8.18. The pEC50 was 8.67 in experiment [3] (setting [12]) and less than 4.57 in experiment [5].

On to `CC(C)(C)c1cn(C[C@H]2CCCO2)/c(=N/C(=O)c2cc(C(F)(F)F)ccc2OC[C@@H]2CNCCO2)s1` [Example 66, N-[(2Z)-5-tert-butyl-3-[(2R)-tetrahydrofuran-2-ylmethyl]-1,3-thiazol-2(3H)-ylidene]-2-[(2S)-morpholin-2-ylmethoxy]-5-(trifluoromethyl)benzamide], for which the pKi was 7.68 in [2] (setting [11]) and 8.29 in experiment [4]. Moreover, the pEC50 in [3] was 9.43; in [5], 5.30.

In the case of `CC(C)(C)c1cn(C[C@H]2CCCO2)/c(=N/C(=O)c2cc(C(F)(F)F)ccc2OC[C@H](N)CO)s1` [Example 69, 2-{[(2R)-2-amino-3-hydroxypropyl]oxy}-N-[(2Z)-5-tert-butyl-3-[(2R)-tetrahydrofuran-2-ylmethyl]-1,3-thiazol-2(3H)-ylidene]-5-(trifluoromethyl)benzamide], the pKi in [2] is 8.44; in experiment [4], 9.05. The pEC50 was 9.85 in experiment [3] (setting [12]) and 5.79 in experiment [5].

With `COc1ccc2c(c1)c(CCN1CCOCC1)c(C)n2C(=O)c1cccc(Cl)c1Cl` [GW405833], the “efficacy in pain models” value in experiment [6] was “efficacious”.

Turning to `CCCCCCC(C)(C)c1cc(OC)c([C@@H]2C=C(CO)[C@@H]3C[C@H]2C3(C)C)c(OC)c1` [HU-308], in [7], the antinociceptive response entry is recorded as “elicits an antinociceptive response”.

`CCCC(C)(C)c1ccc2c(c1)OC(C)(C)[C@@H]1CC=C(C)C[C@@H]21` [JWH-133]: the “effect on β-amyloid-induced microglial activation and neurotoxicity” value in experiment [8] was “abrogated β-amyloid-induced microglial activation and neurotoxicity”.

(−)-Δ^9-Tetrahydrocannabinol [THC]: in [9], the “effect on progression of atherosclerotic lesions” value is reported as “slowed the progression of atherosclerotic lesions”.

Turning to SR144528, in [10], the “effect on osteoclast activity and bone loss” value is “inhibit osteoclast activity and reverse ovariectomy-induced bone loss”.
